Data published in US8766005B2, “Process for producing fingolimod salts” (Ratiopharm GmbH, priority 2009, dated 2014).

Assay: dissolution profile before and after storage
Assay type: physicochemical
Conditions: during shelf life

CCCCCCCCc1ccc(CCC(N)(CO)CO)cc1.Cl [polymorphic form B, fingolimod hydrochloride]
dissolution profile before and after storage: constant
